According to US7132425B2, “5-substituted-six-membered heteroaromatic glucokinase activators” (Hoffmann-La Roche Inc., priority 2002, dated 2006):

Legend:
C57BL/6J mice = assay: Glucokinase activator in vivo screen (blood glucose after oral dosing); details: oral gavage 50 mg/kg after two hour fast, readings 1, 2, 4 and 6 hours post dose, p≦0.05 for two consecutive assay time points
Procedure: Glucokinase Activator in vivo Screen Protocol: C57BL/6J mice are orally dosed via gavage with Glucokinase (GK) activator at 50 mg/kg body weight following a two hour fasting period. Blood glucose determinations are made five times during the six hour post-dose study period.
Mice (n=6) are weighed and fasted for a two hour period prior to oral treatment.

Structure (SMILES)	melting point	decrease in blood glucose compared to vehicle (C57BL/6J mice)
CS(=O)(=O)c1ccc([C@@H](CC2CCCC2)C(=O)Nc2cnc(/C(N)=N\O)cn2)cc1Cl [Example 1, 2(R)-(3-Chloro-4-methanesulfonyl-phenyl)-3-cyclopentyl-N-[5-(N-hydroxycarbamimidoyl)-pyrazin-2-yl]-propionamide]	117 to 121 °C	statistically significant (p≦0.05) decrease in blood glucose
CS(=O)(=O)c1ccc([C@@H](CC2CCCC2)C(=O)Nc2cnc(/C(N)=N\O)cn2)cc1 [Example 3, 3-Cyclopentyl-2(R)-N-[5-(N-hydroxycarbamimidoyl)-pyrazin-2-yl]-2-(4-methanesulfonyl-phenyl)-propionamide]	223 °C (dec.)	statistically significant (p≦0.05) decrease in blood glucose
CS(=O)(=O)c1ccc([C@@H](CC2CCCC2)C(=O)Nc2cnc(SCCO)cn2)cc1Cl [Example 6, 2(R)-(3-Chloro-4-methanesulfonyl-phenyl)-3-cyclopentyl-N-[5-(2-hydroxy-ethylsulfanyl)-pyrazin-2-yl]-propionamide]	78 to 81 °C	statistically significant (p≦0.05) decrease in blood glucose
C[S+]([O-])c1cnc(NC(=O)[C@H](CC2CCCC2)c2ccc(S(C)(=O)=O)c(Cl)c2)cn1 (stereo partly drawn) [Example 7, 2(R)-(3-Chloro-4-methanesulfonyl-phenyl)-3-cyclopentyl-N-(5-methanesulfinyl-pyrazin-2-yl)-propionamide]	88 to 95 °C	statistically significant (p≦0.05) decrease in blood glucose
CS(=O)(=O)Nc1ccc(NC(=O)[C@H](CC2CCCC2)c2ccc(S(C)(=O)=O)c(Cl)c2)nc1 [Example 12, 2(R)-(3-Chloro-4-methanesulfonyl-phenyl)-3-cyclopentyl-N-(5-methanesulfonylamino-pyridin-2-yl)-propionamide]	146 to 150 °C	statistically significant (p≦0.05) decrease in blood glucose
CN(C)c1ccc(NC(=O)[C@H](CC2CCCC2)c2ccc(S(C)(=O)=O)c(Cl)c2)nc1 [Example 14, 2(R)-(3-Chloro-4-methanesulfonyl-phenyl)-3-cyclopentyl-N-(5-dimethylamino-pyridin-2-yl)-propionamide]	166.2 °C	statistically significant (p≦0.05) decrease in blood glucose

Now from value to compound, other results behind:

melting point	Structure (SMILES)	decrease in blood glucose compared to vehicle (C57BL/6J mice)
93.3 to 97.7 °C	CN(C)c1cnc(NC(=O)[C@H](CC2CCCC2)c2ccc(S(C)(=O)=O)c(Cl)c2)cn1 [Example 15, 2(R)-(3-Chloro-4-methylsulfonyl-phenyl)-3-cyclopentyl-N-(5-dimethylamino-pyrazin-2-yl)-propionamide]	statistically significant (p≦0.05) decrease in blood glucose
262 to 264 °C	CS(=O)(=O)c1ccc([C@@H](CC2CCCC2)C(=O)Nc2cnc(-c3noc(N)n3)cn2)cc1Cl [Example 17, N-[5-(5-Amino-[1,2,4]oxadiazol-3-yl)-pyrazin-2-yl]-2(R)-(3-chloro-4-methanesulfonyl-phenyl)-3-cyclopentyl-propionamide]	statistically significant (p≦0.05) decrease in blood glucose
61 to 65 °C	CS(=O)(=O)c1ccc([C@@H](CC2CCCC2)C(=O)Nc2cnc(C[C@H](O)CO)cn2)cc1Cl [Example 81, 2(R)-(3-Chloro-4-methanesulfonyl-phenyl)-3-cyclopentyl-N-[5-(2(S),3-dihydroxy-propyl)-pyrazin-2-yl]-propionamide]	
64 to 69 °C	CS(=O)(=O)c1ccc([C@@H](CC2CCCC2)C(=O)Nc2cnc(C[C@@H](O)CO)cn2)cc1Cl [Example 82, 2(R)-(3-chloro-4-methanesulfonyl-phenyl)-3-cyclopentyl-N-[5-(2(R),3-dihydroxy-propyl)-pyrazin-2-yl]-propionamide]	
